Test results from ChEMBL document CHEMBL1201862, “PubChem BioAssay data set” (2004).
The source made the active and inactive calls.

Legend:
[1] = Luminescence Cell-Based Dose Response HTS to Identify Inhibitors of 5'UTR Stem-Loop Driven Prion Protein mRNA Translation in H4 Neuroglioblastoma Cells. [Related pubchem assays: 1827 (Project Summary), 1813 (Primary HTS)]; format: functional
[2] = alpha-synuclein stem-loop luciferase translation blockers – H4 neuroglioma cells, luminescence, confirmation (AID 1988); format: functional, cell-based
Exodeoxyribonuclease V = Exodeoxyribonuclease V (Escherichia coli (strain K12), UniProt P04993+P07648+P08394); test: RecBCD inhibition via phage-restricted bacterial growth – absorbance, V66 E. coli, mutant T4 phage, counter-screen for AddAB inhibitor project, dose response (AID 492957); format: functional, cell-based, Escherichia coli str. K-12 substr. MG1655
[3] = luciferase reporter signal suppression in cells – H4 neuroglioma cells, luminescence, dose response (AID 1990); format: functional, cell-based
[4] = Counterscreen for AddAB inhibitors: absorbance-based bacterial cell-based high throughput dose response assay for inhibitors of bacterial viability. [Related pubchem assays (depositor defined):AID435030, AID449728, AID449731, AID488942, AID488955, AID488956]; format: functional
[5] = target: Lysine-specific demethylase 4C (Homo sapiens, UniProt Q9H3R0); test: inhibition of JMJD2C H3K9me3 demethylation – biochemical, DELFIA europium, cherry-picked samples, dose response (AID 488835); format: functional
Chain of Lysine-specific demethylase 4C (Q9H3R0 whole entry): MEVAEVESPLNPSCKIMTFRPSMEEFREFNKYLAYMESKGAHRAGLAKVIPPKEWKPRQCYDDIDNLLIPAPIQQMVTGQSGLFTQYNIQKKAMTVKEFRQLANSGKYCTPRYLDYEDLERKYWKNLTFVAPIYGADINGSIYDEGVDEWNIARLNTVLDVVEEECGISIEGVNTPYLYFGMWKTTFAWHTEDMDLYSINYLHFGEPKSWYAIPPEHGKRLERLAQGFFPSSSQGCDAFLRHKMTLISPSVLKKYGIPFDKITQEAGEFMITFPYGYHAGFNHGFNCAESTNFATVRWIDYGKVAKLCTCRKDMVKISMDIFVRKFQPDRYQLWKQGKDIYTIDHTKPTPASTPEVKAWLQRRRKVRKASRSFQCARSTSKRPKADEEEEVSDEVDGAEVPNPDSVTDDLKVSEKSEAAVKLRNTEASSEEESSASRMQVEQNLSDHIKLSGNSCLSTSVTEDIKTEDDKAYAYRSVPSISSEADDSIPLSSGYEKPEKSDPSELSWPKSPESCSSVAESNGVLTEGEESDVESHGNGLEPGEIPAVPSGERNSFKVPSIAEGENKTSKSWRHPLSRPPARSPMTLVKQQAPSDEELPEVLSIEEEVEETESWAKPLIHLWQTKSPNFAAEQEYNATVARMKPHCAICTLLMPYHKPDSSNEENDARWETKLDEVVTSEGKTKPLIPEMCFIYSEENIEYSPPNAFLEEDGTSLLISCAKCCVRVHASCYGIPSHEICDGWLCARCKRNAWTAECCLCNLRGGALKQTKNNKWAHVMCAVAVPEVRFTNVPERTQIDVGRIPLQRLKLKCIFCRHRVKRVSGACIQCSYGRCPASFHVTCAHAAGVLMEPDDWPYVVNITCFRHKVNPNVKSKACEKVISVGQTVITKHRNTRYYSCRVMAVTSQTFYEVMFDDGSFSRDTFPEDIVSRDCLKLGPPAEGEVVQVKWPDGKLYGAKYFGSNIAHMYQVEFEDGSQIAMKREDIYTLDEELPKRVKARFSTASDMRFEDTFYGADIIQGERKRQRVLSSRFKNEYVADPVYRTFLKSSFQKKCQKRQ

[6] = target: Intestinal-type alkaline phosphatase (Homo sapiens, UniProt P09923); test: activation of human intestinal alkaline phosphatase – biochemical, dose response (AID 488873); format: functional
Chain of Intestinal-type alkaline phosphatase (Homo sapiens, UniProt P09923) (P09923 whole entry): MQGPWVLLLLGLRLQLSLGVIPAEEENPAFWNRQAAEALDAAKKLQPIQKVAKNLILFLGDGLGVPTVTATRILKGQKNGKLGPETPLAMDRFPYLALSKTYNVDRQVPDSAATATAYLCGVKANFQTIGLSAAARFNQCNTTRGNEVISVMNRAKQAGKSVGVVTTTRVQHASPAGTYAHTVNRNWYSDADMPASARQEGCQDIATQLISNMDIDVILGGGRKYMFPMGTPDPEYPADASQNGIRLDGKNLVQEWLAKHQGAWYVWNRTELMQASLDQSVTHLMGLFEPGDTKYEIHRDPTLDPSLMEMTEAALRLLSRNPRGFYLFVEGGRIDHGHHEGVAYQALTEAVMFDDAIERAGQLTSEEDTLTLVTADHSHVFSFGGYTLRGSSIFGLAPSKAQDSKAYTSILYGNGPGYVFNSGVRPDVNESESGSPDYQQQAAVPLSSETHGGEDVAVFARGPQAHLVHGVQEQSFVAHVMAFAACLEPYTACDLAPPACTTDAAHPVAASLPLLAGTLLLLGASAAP

Estrogen receptor beta = Estrogen receptor beta (Homo sapiens, UniProt Q92731); test: blockers of SRC-3 recruitment to ERβ – biochemical, ELISA, streptavidin-HRP readout, orthogonal assay, confirmation (AID 1060)
Chain of Estrogen receptor beta (Q92731 whole entry): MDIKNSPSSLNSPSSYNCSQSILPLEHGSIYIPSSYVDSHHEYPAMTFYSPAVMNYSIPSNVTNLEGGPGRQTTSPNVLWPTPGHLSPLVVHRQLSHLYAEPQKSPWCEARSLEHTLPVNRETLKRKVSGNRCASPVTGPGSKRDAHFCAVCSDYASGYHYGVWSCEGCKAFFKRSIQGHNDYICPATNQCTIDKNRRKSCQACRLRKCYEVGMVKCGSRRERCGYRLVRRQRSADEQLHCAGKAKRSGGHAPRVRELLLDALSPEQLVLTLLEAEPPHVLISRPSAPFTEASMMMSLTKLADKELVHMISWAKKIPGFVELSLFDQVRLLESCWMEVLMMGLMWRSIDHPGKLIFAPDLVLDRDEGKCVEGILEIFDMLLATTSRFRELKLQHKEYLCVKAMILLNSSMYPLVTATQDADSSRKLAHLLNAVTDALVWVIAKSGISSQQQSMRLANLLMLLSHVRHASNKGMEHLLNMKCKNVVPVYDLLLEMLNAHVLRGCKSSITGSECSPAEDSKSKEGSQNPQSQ

[7] = target: Intestinal-type alkaline phosphatase (Mus musculus, UniProt P24822); test: mouse intestinal alkaline phosphatase activators, dose response, biochemical, luminescence, uHTS hits (AID 488783); format: functional
Chain of Intestinal-type alkaline phosphatase (Mus musculus, UniProt P24822) (P24822 whole entry): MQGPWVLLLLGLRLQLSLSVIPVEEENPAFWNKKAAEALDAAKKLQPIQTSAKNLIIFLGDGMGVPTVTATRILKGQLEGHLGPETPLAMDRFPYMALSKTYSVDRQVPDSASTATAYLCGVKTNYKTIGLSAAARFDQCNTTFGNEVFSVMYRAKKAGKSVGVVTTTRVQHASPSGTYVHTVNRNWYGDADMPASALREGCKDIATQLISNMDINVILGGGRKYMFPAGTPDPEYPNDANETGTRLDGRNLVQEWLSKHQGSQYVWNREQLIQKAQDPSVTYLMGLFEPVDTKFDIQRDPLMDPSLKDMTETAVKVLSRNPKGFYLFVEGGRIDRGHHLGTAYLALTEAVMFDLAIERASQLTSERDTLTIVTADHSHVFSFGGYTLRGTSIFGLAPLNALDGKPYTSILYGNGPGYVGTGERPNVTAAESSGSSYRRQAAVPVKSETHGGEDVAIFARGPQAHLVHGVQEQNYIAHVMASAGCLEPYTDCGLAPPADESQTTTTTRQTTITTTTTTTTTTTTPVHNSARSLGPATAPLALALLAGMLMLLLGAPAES

[8] = target: T1, Mannose-6-phosphate isomerase (Homo sapiens, UniProt P34949); test: MPI inhibition at elevated mannose 6-phosphate – biochemical, fluorescence intensity, high mannose 6-phosphate, primary screen (AID 1220)
T1 sequence (P34949 whole entry): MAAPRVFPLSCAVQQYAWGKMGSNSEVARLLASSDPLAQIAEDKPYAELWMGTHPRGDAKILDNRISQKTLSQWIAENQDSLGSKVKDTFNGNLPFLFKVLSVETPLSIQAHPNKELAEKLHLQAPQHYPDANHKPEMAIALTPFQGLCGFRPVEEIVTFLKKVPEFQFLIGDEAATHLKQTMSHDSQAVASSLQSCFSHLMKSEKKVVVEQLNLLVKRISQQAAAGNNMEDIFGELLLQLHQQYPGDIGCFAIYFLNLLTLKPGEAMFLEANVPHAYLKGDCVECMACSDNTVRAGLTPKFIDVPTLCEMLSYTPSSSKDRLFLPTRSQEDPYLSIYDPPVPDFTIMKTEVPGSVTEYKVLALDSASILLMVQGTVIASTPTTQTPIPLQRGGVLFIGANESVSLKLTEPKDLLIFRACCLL

[9] = target: T2, Alkaline phosphatase, tissue-nonspecific isozyme (Homo sapiens, UniProt P05186); test: activation of tissue-nonspecific alkaline phosphatase – biochemical, TNAP isozyme, mouse IAP uHTS hits, selectivity assay for mouse IAP activator project, dose response (AID 488880); format: functional
T2 sequence (P05186 whole entry): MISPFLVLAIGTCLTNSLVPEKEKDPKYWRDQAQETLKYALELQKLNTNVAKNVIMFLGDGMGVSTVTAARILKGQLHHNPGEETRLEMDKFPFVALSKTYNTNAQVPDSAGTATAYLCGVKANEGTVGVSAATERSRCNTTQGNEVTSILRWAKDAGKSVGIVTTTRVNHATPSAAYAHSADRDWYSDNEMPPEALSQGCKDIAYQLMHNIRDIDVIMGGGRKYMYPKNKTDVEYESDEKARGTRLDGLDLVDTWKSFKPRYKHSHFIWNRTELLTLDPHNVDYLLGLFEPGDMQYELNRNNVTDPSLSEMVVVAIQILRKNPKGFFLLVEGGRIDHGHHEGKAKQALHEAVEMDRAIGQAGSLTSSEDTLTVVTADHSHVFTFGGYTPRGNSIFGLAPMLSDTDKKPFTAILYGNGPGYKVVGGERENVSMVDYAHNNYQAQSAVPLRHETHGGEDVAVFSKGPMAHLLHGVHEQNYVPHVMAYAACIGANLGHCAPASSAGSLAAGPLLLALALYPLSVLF

Mu-type opioid receptor = Mu-type opioid receptor (Homo sapiens, UniProt P35372); test: SAR Analysis of Agonists of the MOR Receptor using an Image-Based Assay - Set 3. [Related pubchem assays (depositor defined):AID1777, AID1785, AID1786, AID1966, AID2133, AID2136, AID2284, AID2285, AID2352]; format: functional
Chain of Mu-type opioid receptor (P35372 whole entry): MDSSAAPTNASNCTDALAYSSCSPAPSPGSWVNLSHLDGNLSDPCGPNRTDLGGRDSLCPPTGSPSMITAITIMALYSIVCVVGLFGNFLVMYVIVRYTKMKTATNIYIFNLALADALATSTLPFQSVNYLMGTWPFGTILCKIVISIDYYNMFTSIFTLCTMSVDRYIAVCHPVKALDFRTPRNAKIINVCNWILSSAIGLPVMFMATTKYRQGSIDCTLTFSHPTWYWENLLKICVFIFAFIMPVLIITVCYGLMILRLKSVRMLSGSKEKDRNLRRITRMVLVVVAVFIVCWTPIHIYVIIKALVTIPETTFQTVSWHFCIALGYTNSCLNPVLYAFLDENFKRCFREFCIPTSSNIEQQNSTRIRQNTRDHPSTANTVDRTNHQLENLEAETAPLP

[10] = target: Delta-type opioid receptor (Homo sapiens, UniProt P41143); test: SAR Analysis of Agonists of the DOR Receptor using an Image-Based Assay - Set 3. [Related pubchem assays (depositor defined):AID1777, AID1786]; format: functional
Chain of Delta-type opioid receptor (P41143 whole entry): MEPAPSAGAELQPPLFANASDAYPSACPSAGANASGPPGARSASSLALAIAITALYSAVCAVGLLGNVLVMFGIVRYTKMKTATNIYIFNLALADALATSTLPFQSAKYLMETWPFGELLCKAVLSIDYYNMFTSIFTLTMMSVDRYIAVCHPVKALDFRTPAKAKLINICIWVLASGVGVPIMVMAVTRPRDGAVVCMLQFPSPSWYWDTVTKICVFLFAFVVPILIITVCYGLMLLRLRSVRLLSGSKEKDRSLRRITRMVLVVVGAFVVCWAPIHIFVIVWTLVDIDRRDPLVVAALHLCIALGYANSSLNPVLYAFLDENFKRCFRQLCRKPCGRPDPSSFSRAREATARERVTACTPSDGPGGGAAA

[11] = target: T3, Kappa-type opioid receptor (Homo sapiens, UniProt P41145); test: SAR analysis of small molecule agonists of the kappa opioid receptor via a luminescent beta-arrestin assay - Set 3. [Related pubchem assays (depositor defined):AID1777, AID1785, AID1786, AID1966, AID2133, AID2136, AID2284, AID2500]; format: functional
T3 sequence (P41145 whole entry): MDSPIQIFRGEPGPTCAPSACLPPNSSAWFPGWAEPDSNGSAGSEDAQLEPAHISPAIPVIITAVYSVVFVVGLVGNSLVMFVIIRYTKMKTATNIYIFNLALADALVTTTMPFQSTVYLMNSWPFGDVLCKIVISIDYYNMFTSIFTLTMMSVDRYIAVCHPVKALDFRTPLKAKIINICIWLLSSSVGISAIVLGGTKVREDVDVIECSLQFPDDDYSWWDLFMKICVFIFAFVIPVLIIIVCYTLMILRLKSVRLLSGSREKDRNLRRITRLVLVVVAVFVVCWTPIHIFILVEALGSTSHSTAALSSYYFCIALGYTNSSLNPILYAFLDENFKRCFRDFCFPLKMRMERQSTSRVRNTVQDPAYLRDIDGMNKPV

[12] = target: T3, Kappa-type opioid receptor; test: kappa opioid receptor activation by imaging – image-based, set 3, SAR follow-up (AID 488833); format: functional
[13] = toxicity toward cultured mammalian cells – cell-based, plate reader, cherry-pick samples, cytotoxicity control, dose response (AID 504397); format: functional
[14] = target: T4, RNA-binding protein pos-1 (Caenorhabditis elegans, UniProt G5EF15); test: disruptors of C. elegans POS-1 RNA interaction – biochemical, fluorescence polarization, dose response (AID 1964);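 also: purified POS-1 fused to maltose binding protein made in E. coli; potency of compounds blocking POS-1 binding to fluorescent RNA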
T4 sequence (G5EF15 whole entry): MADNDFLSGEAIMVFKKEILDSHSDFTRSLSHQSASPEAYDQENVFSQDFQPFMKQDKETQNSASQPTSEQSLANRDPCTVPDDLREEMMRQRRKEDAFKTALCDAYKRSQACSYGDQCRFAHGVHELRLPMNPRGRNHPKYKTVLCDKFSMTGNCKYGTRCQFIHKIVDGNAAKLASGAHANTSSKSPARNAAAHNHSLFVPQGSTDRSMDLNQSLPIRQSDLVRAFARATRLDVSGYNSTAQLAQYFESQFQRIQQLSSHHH

[15] = target: T5, Runt-related transcription factor 1/Core-binding factor subunit beta (Homo sapiens, UniProt Q01196+Q13951); test: disruptors of Runt domain/CBFb-SMMHC interaction – biochemical, FRET, Cerulean-Runt, Venus-CBFb-SMMHC, uHTS, […] (AID 1434); format: protein assay
T5 sequence (Q01196 whole entry, the tested form may be a part): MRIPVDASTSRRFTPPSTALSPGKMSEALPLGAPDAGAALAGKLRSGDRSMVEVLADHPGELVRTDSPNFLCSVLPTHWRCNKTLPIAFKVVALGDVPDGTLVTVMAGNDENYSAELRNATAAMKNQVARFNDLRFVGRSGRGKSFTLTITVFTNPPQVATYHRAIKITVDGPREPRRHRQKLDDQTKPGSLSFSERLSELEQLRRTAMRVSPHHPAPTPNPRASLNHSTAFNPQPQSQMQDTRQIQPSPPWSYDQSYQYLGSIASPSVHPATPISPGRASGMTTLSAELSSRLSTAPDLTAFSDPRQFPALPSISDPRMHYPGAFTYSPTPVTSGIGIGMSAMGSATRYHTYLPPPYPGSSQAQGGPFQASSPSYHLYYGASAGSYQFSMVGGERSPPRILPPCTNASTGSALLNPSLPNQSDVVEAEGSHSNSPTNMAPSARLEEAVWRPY
T5 sequence (Q13951 whole entry, the tested form may be a part): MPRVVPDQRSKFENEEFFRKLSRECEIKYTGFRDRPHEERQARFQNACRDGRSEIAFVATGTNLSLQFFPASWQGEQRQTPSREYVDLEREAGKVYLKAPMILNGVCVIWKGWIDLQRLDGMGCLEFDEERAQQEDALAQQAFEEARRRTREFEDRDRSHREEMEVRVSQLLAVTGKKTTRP

[16] = target: T6, Zinc finger protein mex-5 (Caenorhabditis elegans, UniProt Q9XUB2); test: potency of MEX-5 RNA-binding blockers – biochemical, C. elegans, fluorescence polarization, dose response (AID 1960)
T6 sequence (Q9XUB2 whole entry): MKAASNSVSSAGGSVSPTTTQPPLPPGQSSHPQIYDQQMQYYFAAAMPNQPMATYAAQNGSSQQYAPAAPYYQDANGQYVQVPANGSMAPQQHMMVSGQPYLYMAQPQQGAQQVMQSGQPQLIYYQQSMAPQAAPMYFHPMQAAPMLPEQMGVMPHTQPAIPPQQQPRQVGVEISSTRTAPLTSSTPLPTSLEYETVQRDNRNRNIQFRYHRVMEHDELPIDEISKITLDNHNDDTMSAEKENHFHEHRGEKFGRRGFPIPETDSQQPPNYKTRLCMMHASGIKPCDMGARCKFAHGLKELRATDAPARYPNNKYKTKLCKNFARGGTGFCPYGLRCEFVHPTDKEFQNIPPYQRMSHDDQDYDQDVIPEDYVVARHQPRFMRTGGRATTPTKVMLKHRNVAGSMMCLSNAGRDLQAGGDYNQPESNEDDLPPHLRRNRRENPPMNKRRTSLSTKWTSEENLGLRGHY

[17] = target: T5, Runt-related transcription factor 1/Core-binding factor subunit beta; test: Runt domain/CBFb-SMMHC interaction disruptors – biochemical, TR-FRET (AID 1438); format: protein assay
[18] = target: Induced myeloid leukemia cell differentiation protein Mcl-1 (Homo sapiens, UniProt Q07820); format: functional
Chain of Induced myeloid leukemia cell differentiation protein Mcl-1 (Q07820 whole entry): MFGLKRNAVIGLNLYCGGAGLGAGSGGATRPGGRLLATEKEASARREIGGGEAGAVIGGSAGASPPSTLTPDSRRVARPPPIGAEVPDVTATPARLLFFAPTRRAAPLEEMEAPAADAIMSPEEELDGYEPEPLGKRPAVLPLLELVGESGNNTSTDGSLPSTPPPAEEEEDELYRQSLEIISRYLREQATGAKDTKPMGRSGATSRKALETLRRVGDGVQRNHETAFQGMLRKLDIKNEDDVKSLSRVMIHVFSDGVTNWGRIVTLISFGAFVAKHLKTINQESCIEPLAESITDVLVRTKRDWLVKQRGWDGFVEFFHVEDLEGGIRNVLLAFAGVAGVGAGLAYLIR

For `CCCNC(=O)c1ccc2c(O)c(O)c(-c3ccsc3)nc2c1`, the EC50 [1] was 10.6 µM (active), the EC50 [2] was 8.96 µM (active) and the IC50 (Exodeoxyribonuclease V) was > 118 µM (inactive). The EC50 [3] was 11.7 µM (active) and the IC50 [4] was > 118 µM (inactive).
For `COc1ccc(NC(=O)C2CCCCN2N)cc1OCC(C)C` (stereo unspecified), the AC50 [5] was 27.6 µM (active).
For `Oc1ccc2cc3c4cc(Br)ccc4nc-3oc2c1O`, the EC50 [6] was 21.2 µM (active), the IC50 (Estrogen receptor beta) was 5.38 µM (not active) and the EC50 [7] was 22.1 µM (active). The IC50 [8] was 30 µM (active) and the EC50 [9] was 24 µM (active).
For `CC(C)c1ccc(CSc2nnc(-c3ccccn3)n2Cc2ccco2)cc1`, the EC50 (Mu-type opioid receptor) was > 32 µM (inactive), the EC50 [10] was > 64 µM (inactive) and the EC50 [11] was 5.97 µM (active). The EC50 [12] was 2.84 µM (active).
With `COc1ccccc1/C=C/C=N/NC(=O)CN1CCN(S(=O)(=O)c2ccc(C)cc2)CC1` the AC50 [13] was 132 µM (active).
For `COc1ccc(C(=O)/N=c2\c(C#N)cc3c(=O)n4cccc(C)c4nc3n2Cc2ccco2)cc1`, the EC50 [14] was 220 µM (active), the IC50 [15] was 8.9 µM (active) and the EC50 [16] was > 300 µM (not active). For the same molecule, the IC50 [17] was 73.7 µM (inactive) and the IC50 [18] was 3.9 µM (active).
